Measured values taken from ChEMBL document CHEMBL1143529, “A general carbometalation, three component coupling strategy for the synthesis of alpha,beta-unsaturated gamma-sultines including thio-rofecoxib, a selective COX-2 inhibitor” (Bioorg Med Chem Lett, 2005).
pIC50: −log10 of the molar value.

Assays:
[1] = molecular target: T1, Prostaglandin G/H synthase 2 (Homo sapiens, UniProt P35354); assay: In vitro inhibitory concentration against prostaglandin G/H synthase 2 in microsomal enzyme assay
T1 sequence (P35354 whole entry): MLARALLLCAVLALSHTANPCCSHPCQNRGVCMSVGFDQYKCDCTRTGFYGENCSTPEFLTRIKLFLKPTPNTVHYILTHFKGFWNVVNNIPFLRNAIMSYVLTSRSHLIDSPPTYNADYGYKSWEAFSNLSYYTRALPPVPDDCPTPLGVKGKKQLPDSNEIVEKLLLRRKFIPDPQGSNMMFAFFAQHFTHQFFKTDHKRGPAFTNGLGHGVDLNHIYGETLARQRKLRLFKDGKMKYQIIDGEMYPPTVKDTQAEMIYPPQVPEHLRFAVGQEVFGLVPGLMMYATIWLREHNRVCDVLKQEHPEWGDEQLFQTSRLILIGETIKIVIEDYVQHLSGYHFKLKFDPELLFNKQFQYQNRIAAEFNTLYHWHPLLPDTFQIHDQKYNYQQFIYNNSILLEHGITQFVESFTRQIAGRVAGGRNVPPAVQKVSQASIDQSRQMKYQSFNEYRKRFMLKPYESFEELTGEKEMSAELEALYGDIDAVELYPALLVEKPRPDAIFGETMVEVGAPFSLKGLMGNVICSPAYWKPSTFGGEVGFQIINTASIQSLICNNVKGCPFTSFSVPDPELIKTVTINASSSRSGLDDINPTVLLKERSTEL

[2] = molecular target: T2, Prostaglandin G/H synthase 2 (Homo sapiens) (UniProt P35354); assay: In vitro percent inhibition of prostaglandin G/H synthase 2 at 100 uM in microsomal enzyme assay
T2 sequence (whole entry): T1 sequence (P35354 whole entry)

CS(=O)(=O)c1ccc(C2=C(c3ccccc3)S(=O)OC2)cc1 (configuration not stated)
pIC50 [1]: < 4.00 | inhibition [2]: 13%
